According to patent US10188656B2, “Methods of treatment of malignancies” (Agios Pharmaceuticals, Inc., priority 2015, dated 2019):

Key:
Format in all cases: in vivo, human
2-HG plasma levels = test: Phase 1/2 study: pharmacodynamic response, 2-HG plasma levels; settings: most subjects with R140Q mutation, all doses; sustained reduction by Day 1 of Cycle 2
Experimental: Subjects in the dose escalation phase and Part 1 Expansion also will undergo PK/PD assessments over a 10-hour period on C1D15, C2D1, and C4D1. […] These subjects will have urine collected for PK/PD evaluation at screening; prior to dosing on C1D15, C2D1 and Day 1 of all cycles thereafter; and at the End of Treatment visit. Available bone marrow biopsy samples also will be assessed for 2-HG and α-KG levels.
The starting dose of COMPOUND 1 recommended for evaluation is 100 mg QD. This is based on the safety, PK, pharmacodynamics and clinical activity of COMPOUND 1 observed to date in AG221-C-001. […] Thus a dose of 100 mg should adequately achieve inhibition of 2-HG in subjects with either R140Q or R172K mutation.
Serial blood sampling for determination of concentration-time profiles of COMPOUND 1 and its metabolite (6-(6-(trifluoromethyl)pyridin-2-yl)-N2-(2-(trifluoromethyl)pyridin-4-yl)-1,3,5-triazine-2,4-diamine). Urine sampling for determination of concentrations of COMPOUND 1 and its metabolite (6-(6-(trifluoromethyl)pyridin-2-yl)-N2-(2-(trifluoromethyl)pyridin-4-yl)-1,3,5-triazine-2,4-diamine) (dose escalation and Part 1 expansion subjects only). Blood and bone marrow sampling for determination of 2-HG and α-KG levels.

[1] = Phase 1/2 study: safety (AEs, NCI CTCAE v4.03); settings: 100 mg, including ≥Grade 3
Description: Monitoring of AEs, including determination of DLTs, serious adverse events (SAEs), and AEs leading to discontinuation; safety laboratory parameters; physical examination findings; vital signs; 12-lead ECGs; LVEF; and ECOG PS.
The severity of AEs will be assessed by the NCI CTCAE, Version 4.03.

[2] = system: advanced hematologic malignancies with an IDH2 mutation; test: Example 2: NRAS mutation status at screening versus COMPOUND 1 response (next generation sequencing, Fisher's exact test)
Experimental: A subset of the clinical samples from the trial described in Example 1 were analyzed at screening. Sample types included bone marrow, peripheral blood and mononuclear cells isolated from bone marrow or peripheral blood. DNAs were extracted from these samples and sequenced at Foundation Medicine (see http://foundationone.com/learn.php) using next generation sequencing technique.
A total of 60 genes were identified to carry at least one mutation in the analyzed set (including IDH2 gene). Fisher's exact test was conducted to evaluate the association of somatic mutations with clinical response (responders include CR, CRp, CRi and PR, indicated as +, while none-responders include SD and PD, indicated as − in Table 9). The P-values were adjusted by multiple-test correction.
Mutation status positive (+) means any known mutation(s) in NRAS, and negative (−) means no mutation in NRAS was present.
Positive response status (+) includes CR, mCR and PR and negative response status (−) includes stable disease (SD) and pregressive disease (PD).

[3] = system: rrAML with an IDH2 mutation; test: Example 5: FoundationOne Heme panel co-mutations versus response to COMPOUND 1 in rrAML patients
Experimental: FoundationOne Heme panel analysis was performed on 100 screening samples from rrAML patients in the trial described in Example 1. Sample types included peripheral blood and bone marrow.
While rare, co-occurring mutations in TET2 (5 patients) and IDH1 (4 patients) were also observed in this cohort. Mechanistically, mutations in these genes may counteract the efficacy of COMPOUND 1; however, presence of either of these mutated genes was not associated with significant decrease in ORR or complete response (CR) (Table 10).
To further investigate the association between NRAS mutations and ORR to COMPOUND 1, a more detailed analysis of individual mutation sites was performed. NRAS mutations at G12, G13, and Q61 are the most highly characterized sites known to result in constitutive RAS signaling, see Prior I A, Lewis P D, Mattos C. A comprehensive survey of Ras mutations in cancer, Cancer Res. 2012; 72(10):2457-67. When mutations at these sites were analyzed versus ORR to COMPOUND 1, the observed decrease in ORR became statistically significant (p=0.002, see, FIG. 9A and Table 11). Table 11 provides a contingency table indicating statistical significance of lower overall response rate seen in patients presenting with an NRAS co-mutation.

[4] = rrAML, co-occurring ASXL1 mutation
[5] = rrAML, co-occurring ATM mutation
[6] = rrAML, co-occurring BCOR mutation
[7] = rrAML, co-occurring BCORL1 mutation
[8] = rrAML, co-occurring CBL mutation
[9] = rrAML, co-occurring CEBPA mutation
[10] = rrAML, co-occurring CUX1 mutation
[11] = rrAML, co-occurring DNMT3A mutation
[12] = rrAML, co-occurring ETV6 mutation
[13] = rrAML, co-occurring EZH2 mutation
[14] = rrAML, co-occurring FLT3 mutation
[15] = rrAML, co-occurring GATA2 mutation
[16] = rrAML, co-occurring IDH1 mutation
[17] = rrAML, co-occurring JAK2 mutation
[18] = rrAML, co-occurring KMT2A mutation
[19] = rrAML, co-occurring KRAS mutation
[20] = rrAML, co-occurring NPM1 mutation
[21] = rrAML, co-occurring NRAS mutation
[22] = rrAML, co-occurring PHF6 mutation
[23] = rrAML, co-occurring PTPN11 mutation
[24] = rrAML, co-occurring RUNX1 mutation
[25] = rrAML, co-occurring SETBP1 mutation
[26] = rrAML, co-occurring SF3B1 mutation
[27] = rrAML, co-occurring SRSF2 mutation
[28] = rrAML, co-occurring STAG2 mutation
[29] = rrAML, co-occurring TET2 mutation
[30] = rrAML, co-occurring TP53 mutation
[31] = rrAML, co-occurring U2AF1 mutation
[32] = rrAML, co-occurring WT1 mutation

For `CC(C)(O)CNc1nc(Nc2ccnc(C(F)(F)F)c2)nc(-c2cccc(C(F)(F)F)n2)n1` [COMPOUND 1, 2-methyl-1-[(4-[6-(trifluoromethyl)pyridin-2-yl]-6-{[2-(trifluoromethyl)pyridin-4-yl]amino}-1,3,5-triazin-2-yl)amino]propan-2-ol], the “inhibition of 2-HG plasma levels” value (2-HG plasma levels) was “up to 98%”, the safety profile [1] was “consistent with that of lower doses” and the number of patients ([2]; response status +, NRAS mutation +) was 2. For the same compound, the number of patients ([2]; response status +, NRAS mutation −) was 55, the number of patients ([2]; response status − (SD, PD), NRAS mutation +) was 21 and the number of patients ([2]; response status − (SD, PD), NRAS mutation −) was 40. For the same compound, the “number of patients, No Response” value ([3]; NRAS mt (G12, G13, Q61)) was 13, the “number of patients, Response” value ([3]; NRAS mt (G12, G13, Q61)) was 1 and the “number of patients, No Response” value ([3]; NRAS wt) was 37. The “number of patients, Response” value ([3]; NRAS wt) was 40, the ORR ([3]; patients with the least (≤3) co-occurring mutations) was 69.2% and the ORR ([3]; patients with the most (≥6) co-occurring mutations) was 23.3%. For the same compound, the CR [3, 4] was 0.269, the “CR, OR” value [3, 4] was 0.583 and the ORR [3, 4] was 0.385. The “ORR, OR” value [3, 4] was 0.784, the ORR ([3]; rrAML, co-occurring ASXL1 mutation (text)) was 39% and the CR [3, 5] was 0.500. For the same compound, the “CR, OR” value [3, 5] was 1.721, the ORR [3, 5] was 0.500 and the “ORR, OR” value [3, 5] was 1.306. For the same compound, the CR [3, 6] was 0.308, the “CR, OR” value [3, 6] was 0.743 and the ORR [3, 6] was 0.385. For the same compound, the “ORR, OR” value [3, 6] was 0.800, the CR [3, 7] was 0.000 and the “CR, OR” value [3, 7] was 0.334. For the same compound, the ORR [3, 7] was 0.000, the “ORR, OR” value [3, 7] was 0.254 and the CR [3, 8] was 0.333. For the same compound, the “CR, OR” value [3, 8] was 0.853, the ORR [3, 8] was 0.333 and the “ORR, OR” value [3, 8] was 0.646. The CR [3, 9] was 0.167, the “CR, OR” value [3, 9] was 0.331 and the ORR [3, 9] was 0.167. The “ORR, OR” value [3, 9] was 0.250, the CR [3, 10] was 0.500 and the “CR, OR” value [3, 10] was 1.721. For the same compound, the ORR [3, 10] was 0.500, the “ORR, OR” value [3, 10] was 1.306 and the CR [3, 11] was 0.359. The “CR, OR” value [3, 11] was 0.945, the ORR [3, 11] was 0.513 and the “ORR, OR” value [3, 11] was 1.509. The CR [3, 12] was 0.000, the “CR, OR” value [3, 12] was 0.334 and the ORR [3, 12] was 0.500. The “ORR, OR” value [3, 12] was 1.306, the CR [3, 13] was 0.200 and the “CR, OR” value [3, 13] was 0.418. For the same compound, the ORR [3, 13] was 0.200, the “ORR, OR” value [3, 13] was 0.316 and the CR [3, 14] was 0.200. The “CR, OR” value [3, 14] was 0.408, the ORR [3, 14] was 0.200 and the “ORR, OR” value [3, 14] was 0.306. The CR [3, 15] was 0.000, the “CR, OR” value [3, 15] was 0.334 and the ORR [3, 15] was 0.000. For the same compound, the “ORR, OR” value [3, 15] was 0.254, the CR [3, 16] was 0.250 and the “CR, OR” value [3, 16] was 0.563. The ORR [3, 16] was 0.500, the “ORR, OR” value [3, 16] was 1.310 and the CR [3, 17] was 0.000. The “CR, OR” value [3, 17] was 0.182, the ORR [3, 17] was 0.000 and the “ORR, OR” value [3, 17] was 0.138. The CR [3, 18] was 0.286, the “CR, OR” value [3, 18] was 0.662 and the ORR [3, 18] was 0.357. For the same compound, the “ORR, OR” value [3, 18] was 0.703, the CR [3, 19] was 0.200 and the “CR, OR” value [3, 19] was 0.418. For the same compound, the ORR [3, 19] was 0.400, the “ORR, OR” value [3, 19] was 0.864 and the CR [3, 20] was 0.250. The “CR, OR” value [3, 20] was 0.548, the ORR [3, 20] was 0.417 and the “ORR, OR” value [3, 20] was 0.924. For the same compound, the CR [3, 21] was 0.063, the “CR, OR” value [3, 21] was 0.099 and the ORR [3, 21] was 0.188. The “ORR, OR” value [3, 21] was 0.270, the ORR ([3]; rrAML, co-occurring NRAS mutation (text)) was 19% and the CR [3, 22] was 0.333. The “CR, OR” value [3, 22] was 0.850, the ORR [3, 22] was 0.500 and the “ORR, OR” value [3, 22] was 1.314. The CR [3, 23] was 0.000, the “CR, OR” value [3, 23] was 0.148 and the ORR [3, 23] was 0.000. The “ORR, OR” value [3, 23] was 0.112, the CR [3, 24] was 0.217 and the “CR, OR” value [3, 24] was 0.429. For the same compound, the ORR [3, 24] was 0.261, the “ORR, OR” value [3, 24] was 0.411 and the ORR ([3]; rrAML, co-occurring RUNX1 mutation (text)) was 26%. The CR [3, 25] was 0.000, the “CR, OR” value [3, 25] was 0.237 and the ORR [3, 25] was 0.000. The “ORR, OR” value [3, 25] was 0.180, the CR [3, 26] was 0.000 and the “CR, OR” value [3, 26] was 0.237. The ORR [3, 26] was 0.000, the “ORR, OR” value [3, 26] was 0.180 and the CR [3, 27] was 0.293. For the same compound, the “CR, OR” value [3, 27] was 0.637, the ORR [3, 27] was 0.341 and the “ORR, OR” value [3, 27] was 0.598. For the same compound, the ORR ([3]; rrAML, co-occurring SRSF2 mutation (text)) was 34%, the CR [3, 28] was 0.455 and the “CR, OR” value [3, 28] was 1.462. The ORR [3, 28] was 0.455, the “ORR, OR” value [3, 28] was 1.091 and the CR [3, 29] was 0.333. The “CR, OR” value [3, 29] was 0.853, the ORR [3, 29] was 0.333 and the “ORR, OR” value [3, 29] was 0.646. For the same compound, the CR [3, 30] was 0.000, the “CR, OR” value [3, 30] was 0.334 and the ORR [3, 30] was 0.000. For the same compound, the “ORR, OR” value [3, 30] was 0.254, the CR [3, 31] was 0.500 and the “CR, OR” value [3, 31] was 1.721. The ORR [3, 31] was 1.000, the “ORR, OR” value [3, 31] was 6.678 and the CR [3, 32] was 0.333. For the same compound, the “CR, OR” value [3, 32] was 0.853, the ORR [3, 32] was 0.333 and the “ORR, OR” value [3, 32] was 0.646.
